Residues, ends and D or L forms follow the SMILES beside them. No end group written: not given here.
Tests used:
[1] = target: T1, Sap9 (Candida albicans, UniProt Q59SU1); conditions: 3.13 μg mL^−1 Sap9
Method: (§1) The cleavage sites of the Saps and the abundance of the fragments produced by cleavage were determined using mass spectrometry. […] The binding solution was 0.1% formic acid, and the releasing solution was 0.1% formic acid/60% acetonitrile (ACN). To ensure equal flow-through volume of each sample, 18 μL of desalted sample was aliquoted and 1 μL of the four-amino acid peptide MRFA at 0.1 mg mL^−1 was added. Samples were manually loaded through loop injection at 25 μL min^−1 with 40% ACN/0.1% formic acid. Mass spectra were acquired with a Thermo Scientific Orbitrap Fusion Lumos Tribrid mass spectrometer with data-dependent analysis at a 5 s cycle time. Manufacturer recommended source parameters for a flow rate of 25 μL min^−1 were applied. Full scan mass spectra of m z^−1 350-1550 were acquired in the orbitrap at R=120000 (m z^−1 200) with fluoranthene ion as the internal calibrant. CID and ETD fragments of the most intense ions (z>1) were recorded with the orbitrap at R=60000 (m z^−1 200). Dynamic exclusion was set at 30 s.
(§2) The molecular weights of the peptides and their fragments were calculated from full scan MS spectra using the XTract program in the XCalibur software (Thermo Scientific). MS/MS spectra from ETD and CID fragmentation were processed using Proteome Discoverer (V2.1) with Prosight PD node to identify peptides and their degradation products. […] Intensities of identified peptides and their degradation products relative to the internal standard MRFA were obtained from the deconvoluted full scan mass spectra.
(§3) After incubation of the peptides with each Sap, the four-amino-acid peptide MRFA was added as an internal standard, and samples were directly injected into the mass spectrometer.

[2] = target: T2, Sap2 (Candida albicans, UniProt P0DJ06); conditions: 6.25 μg mL^−1 Sap2
T2 sequence (P0DJ06 57-398): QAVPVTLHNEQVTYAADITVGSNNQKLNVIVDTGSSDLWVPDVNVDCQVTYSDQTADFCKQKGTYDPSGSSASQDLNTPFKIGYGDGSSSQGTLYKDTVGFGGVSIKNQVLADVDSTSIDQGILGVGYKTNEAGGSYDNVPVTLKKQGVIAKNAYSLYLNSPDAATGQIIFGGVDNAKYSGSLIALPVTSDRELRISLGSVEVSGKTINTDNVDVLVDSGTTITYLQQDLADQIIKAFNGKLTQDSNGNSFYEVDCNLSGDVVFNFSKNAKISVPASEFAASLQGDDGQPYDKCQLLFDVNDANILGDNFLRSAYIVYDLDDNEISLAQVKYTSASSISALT
Method: as §1, §2, §3

[3] = target: T1, Sap9; assay: in vitro; conditions: Candida albicans, isolated enzyme
Method: (§4) Experiments were done in 1 mM NaPB. The mixtures were incubated at 37° C. for 2 h, and NaPB with no Sap was used as a control. After the incubation, the samples were mixed with tricine sample buffer (without Coomassie Blue G-250, except in control samples) containing β-mercaptoethanol and boiled for 5 min at 100° C. to inactivate the proteases. The degraded and non-degraded peptides were separated by gel electrophoresis in 10-20% Tris-tricine gels (Bio-Rad), and the gels were then fixed in a 10% acetic acid/40% methanol/50% water mixture for 30 min. The fixed gels were stained with Bio-Safe Coomassie stain (Bio-Rad) for 1 h and washed with fresh water three times, once overnight and then twice for at least 2 h each time. The gels were imaged on a Chemidoc imager (Bio-Rad), and densitometric analysis was done with Image Lab software (Bio-Rad). […] Three replicates of the assay were done.
(§5) To measure the antifungal activity of the peptides following degradation by the Saps, the antifungal activity assay was performed as described above, except the peptides were first exposed to Saps. The peptide fragments were prepared by incubating each peptide (150 μg mL^−1) with 6.25 μg mL^−1 Sap9 or 18 μg mL^−1 Sap2 for 2 h at 37° C. The enzymes were then inactivated by heating at 100° C. for 5 min. As controls, each peptide was also incubated with only NaPB buffer. Samples were then stored at −20° C. until use in the antifungal activity assay.
(§6) The intact peptide was then separated from the degradation products using gel electrophoresis and quantified the level of degradation using densitometric analysis of Coomassie-stained gels.
(§7) To amplify differences in antifungal activity due to degradation by the Saps, the concentrations of the Saps was increased by at least two-fold compared to the concentrations used for the gel electrophoresis data in FIGS. 1A-1D (to 6.25 μg mL^−1 for Sap9 and 18 μg mL^−1 for Sap2).

[4] = target: T2, Sap2; assay: in vitro; conditions: for degradation by Sap2 (in words): 6.25 μg mL^−1 Sap2, 150 μg mL^−1 peptide; for degradation by Sap2 (in words) / intact peptide remaining after incubation with higher Sap2 concentration: 2 h, 37° C.; for intact peptide remaining after incubation with higher Sap2 concentration: 18 μg mL^−1 Sap2, 150 μg mL^−1 peptide
Method: as §4, §5, §6, §7

[5] = test system: C. albicans cells (ATCC 90028); assay: Degradation of peptides by whole C. albicans cells, gel densitometry; type: in vitro ADME; conditions: 1×10^9 cells mL^−1, 150 μg mL^−1 peptide, 2 h, 37° C., 100 mM NaPB
Method: For degradation with C. albicans, a single colony of the ATCC 90028 strain (American Type Culture Collection) was used to inoculate YPD. The culture was grown overnight, subcultured, and grown to an optical density of 1-1.2 at OD600. All incubations were done at 30° C. The cells were washed three times in 100 mM NaPB and diluted to 2×10^9 cells mL^−1. Equal volumes of cells and peptides were mixed and incubated for 2 h at 37° C. The cells were removed by centrifugation, and the supernatants were mixed with tricine sample buffer and boiled for 10 min. The samples were then run on gels and analyzed as described above for degradation by the Saps. Three biological replicates were performed.
After observing the effect of residue modifications on the cleavage of Hst-5 by the purified recombinant Saps, whether incubation of the peptides with whole C. albicans cells expressing Saps (rather than Saps produced recombinantly) would yield similar results was evaluated. Hst-5 and the synthetic peptides were incubated with C. albicans cells for 2 h at 37° C. in 100 mM NaPB. The high ionic strength of this buffer prevents internalization of the peptides by C. albicans (4) allowing analysis of degradation of the peptides without the confounding effects of peptide internalization, which would reduce the amount of peptide in the reaction buffer.

[6] = test system: Sap2; assay: 6.25 μg mL^−1 Sap2 in 1 mM NaPB; conditions: C. albicans, 37° C., up to 2 h
[7] = test system: Sap2; assay: 18 μg mL^−1 Sap2 in 1 mM sodium phosphate buffer (NaPB); conditions: C. albicans, 37° C., up to 2 h
[8] = test system: Sap9; assay: 3.13 μg mL^−1 Sap9 in 1 mM NaPB; conditions: C. albicans, 37° C., up to 2 h

T1 sequence (Q59SU1 18-520): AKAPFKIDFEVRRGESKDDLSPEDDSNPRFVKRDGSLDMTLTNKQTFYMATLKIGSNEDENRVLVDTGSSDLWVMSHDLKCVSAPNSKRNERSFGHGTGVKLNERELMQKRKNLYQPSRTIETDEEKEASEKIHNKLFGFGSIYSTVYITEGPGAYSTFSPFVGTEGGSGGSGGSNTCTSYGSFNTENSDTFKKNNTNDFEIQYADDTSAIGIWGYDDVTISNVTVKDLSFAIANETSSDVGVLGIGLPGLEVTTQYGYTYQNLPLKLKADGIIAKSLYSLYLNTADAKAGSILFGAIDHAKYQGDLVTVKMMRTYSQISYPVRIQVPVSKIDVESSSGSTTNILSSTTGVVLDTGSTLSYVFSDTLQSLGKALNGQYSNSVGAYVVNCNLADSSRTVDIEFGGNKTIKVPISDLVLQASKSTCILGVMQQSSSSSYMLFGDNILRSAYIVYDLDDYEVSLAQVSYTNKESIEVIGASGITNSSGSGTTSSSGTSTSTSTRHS

C[C@H](NC(=O)[C@H](Cc1cnc[nH]1)NC(=O)[C@H](CO)NC(=O)[C@@H](N)CC(=O)O)C(=O)N[C@@H](CCCCN)C(=O)N[C@@H](CCCNC(=N)N)C(=O)N[C@@H](Cc1cnc[nH]1)C(=O)N[C@@H](Cc1cnc[nH]1)C(=O)NCC(=O)N[C@@H](Cc1ccc(O)cc1)C(=O)N[C@@H](CCCCN)C(=O)N[C@@H](CCCNC(=N)N)C(=O)N[C@@H](CCCCN)C(=O)N[C@@H](Cc1ccccc1)C(=O)N[C@@H](Cc1cnc[nH]1)C(=O)N[C@@H](CCC(=O)O)C(=O)N[C@@H](CCCCN)C(=O)N[C@@H](Cc1cnc[nH]1)C(=O)N[C@@H](Cc1cnc[nH]1)C(=O)N[C@@H](CO)C(=O)N[C@@H](Cc1cnc[nH]1)C(=O)N[C@@H](CCCNC(=N)N)C(=O)NCC(=O)N[C@@H](Cc1ccc(O)cc1)C(=O)O [Hst-5, reference compound]
mass spectrometry signal of intact peptide versus fragments, Sap9 [1]: signal for the degradation fragment containing amino acids 1-17 of Hst-5 was higher than the intact peptide | mass spectrometry signal of intact peptide versus fragments, Sap2 [2]: intact peptide having the highest signal | remaining at 2 h, 150 μg mL^−1 [3]: 47% | remaining at 2 h, 150 μg mL^−1 ([4]; Candida albicans, isolated enzyme): 61%

CC(C)C[C@H](NC(=O)[C@H](CCCNC(=N)N)NC(=O)[C@H](CCCCN)NC(=O)[C@H](Cc1ccc(O)cc1)NC(=O)CNC(=O)[C@H](Cc1c[nH]cn1)NC(=O)[C@H](Cc1c[nH]cn1)NC(=O)[C@H](CCCNC(=N)N)NC(=O)[C@H](CCCCN)NC(=O)[C@H](C)NC(=O)[C@H](Cc1c[nH]cn1)NC(=O)[C@H](CO)NC(=O)[C@@H](N)CC(=O)O)C(=O)N[C@@H](Cc1ccccc1)C(=O)N[C@@H](Cc1c[nH]cn1)C(=O)N[C@@H](CCC(=O)O)C(=O)N[C@@H](CCCCN)C(=O)N[C@@H](Cc1c[nH]cn1)C(=O)N[C@@H](Cc1c[nH]cn1)C(=O)N[C@@H](CO)C(=O)N[C@@H](Cc1c[nH]cn1)C(=O)N[C@@H](CCCNC(=N)N)C(=O)NCC(=O)N[C@@H](Cc1ccc(O)cc1)C(=O)O [Peptide K13L] (H-DSHAKRHHGYKRLFHEKHHSHRGY-OH; N-terminus and C-terminus assumed)
mass spectrometry signal of intact peptide versus fragments, Sap9 [1]: apparent shift in cleavage site preference compared to the parent Hst-5 | degradation by C. albicans cells (in words) [5]: increase in degradation compared to the parent Hst-5

CC(C)C[C@H](NC(=O)[C@H](CCC(=O)O)NC(=O)[C@H](Cc1c[nH]cn1)NC(=O)[C@H](Cc1ccccc1)NC(=O)[C@H](CCCCN)NC(=O)[C@H](CCCNC(=N)N)NC(=O)[C@H](CCCCN)NC(=O)[C@H](Cc1ccc(O)cc1)NC(=O)CNC(=O)[C@H](Cc1c[nH]cn1)NC(=O)[C@H](Cc1c[nH]cn1)NC(=O)[C@H](CCCNC(=N)N)NC(=O)[C@H](CCCCN)NC(=O)[C@H](C)NC(=O)[C@H](Cc1c[nH]cn1)NC(=O)[C@H](CO)NC(=O)[C@@H](N)CC(=O)O)C(=O)N[C@@H](Cc1c[nH]cn1)C(=O)N[C@@H](Cc1c[nH]cn1)C(=O)N[C@@H](CO)C(=O)N[C@@H](Cc1c[nH]cn1)C(=O)N[C@@H](CCCNC(=N)N)C(=O)NCC(=O)N[C@@H](Cc1ccc(O)cc1)C(=O)O [Peptide K17L] (H-DSHAKRHHGYKRKFHELHHSHRGY-OH; N-terminus and C-terminus assumed)
cleavage on the C-terminal side of K17 by Sap9 (mass spectrometry) [1]: neither K17R nor K17L showed significant cleavage at this site | mass spectrometry signal of intact peptide versus fragments, Sap9 [1]: the most intense signal came from the intact peptide | cleavage at the C-terminal side of K17 by Sap2 (mass spectrometry) [2]: still cleaved | remaining at 2 h, 150 μg mL^−1 [3]: 77% | degradation by Sap2 (in words) [4]: No detectable degradation | intact peptide remaining after incubation with higher Sap2 concentration [4]: over 70%

C[C@H](NC(=O)[C@H](Cc1c[nH]cn1)NC(=O)[C@H](CO)NC(=O)[C@@H](N)CC(=O)O)C(=O)N[C@@H](CCCCN)C(=O)N[C@@H](CCCNC(=N)N)C(=O)N[C@@H](Cc1c[nH]cn1)C(=O)N[C@@H](Cc1c[nH]cn1)C(=O)NCC(=O)N[C@@H](Cc1ccc(O)cc1)C(=O)N[C@@H](CCCCN)C(=O)N[C@@H](CCCNC(=N)N)C(=O)N[C@@H](CCCCN)C(=O)N[C@@H](Cc1ccccc1)C(=O)N[C@@H](Cc1c[nH]cn1)C(=O)N[C@@H](CCC(=O)O)C(=O)N[C@@H](CCCNC(=N)N)C(=O)N[C@@H](Cc1c[nH]cn1)C(=O)N[C@@H](Cc1c[nH]cn1)C(=O)N[C@@H](CO)C(=O)N[C@@H](Cc1c[nH]cn1)C(=O)N[C@@H](CCCNC(=N)N)C(=O)NCC(=O)N[C@@H](Cc1ccc(O)cc1)C(=O)O [Peptide K17R] (H-DSHAKRHHGYKRKFHERHHSHRGY-OH; N-terminus and C-terminus assumed)
cleavage on the C-terminal side of K17 by Sap9 (mass spectrometry) [1]: neither K17R nor K17L showed significant cleavage at this site | mass spectrometry signal of intact peptide versus fragments, Sap9 [1]: the most intense signal came from the intact peptide | cleavage at the C-terminal side of K17 by Sap2 (mass spectrometry) [2]: still cleaved | remaining at 2 h, 150 μg mL^−1 [3]: 82% | degradation by Sap2 (in words) [4]: No detectable degradation | intact peptide remaining after incubation with higher Sap2 concentration [4]: over 90%

DSHAKRHHGYKRKFHELHHSHRGY
cleaved bond [6]: L17-H18

DSHAKRHHGYKRKFHERHHSHRGY
not cleaved [7]: over 90% remaining | cleaved bond [6]: R17-H18

DSHAKRHHGYRRKFHERHHSHRGY
not cleaved [8]: no observable degradation | not cleaved [6]: no observable degradation
